According to article PMC7408493, “Implication of Opioid Receptors in the Antihypertensive Effect of a Novel Chicken Foot-Derived Peptide” (Biomolecules, 2020):
Bridge positions count the residues as written; N and C are the ends. Ends that are not written are not given here. Peptide text beside a SMILES is read from it. I, II: the chains in the order shown. * marks the point of attachment. X1 = NC(=O)CC[C@H](NC(=O)[C@@H](N)CS*)C(=O)N[C@@H](CCC(=O)O)C(=O)O

Columns and labels:
opioid receptors = conditions: non-selective opioid receptor antagonist Naloxone; cited from earlier work
From the text: However, some bioactive peptides might mediate their physiological effects through its binding to receptors present in the intestinal wall, implying that their absorption is not required. […] These opioid-like peptides are atypical opioid ligands that are released from the hydrolysis of food and present N-terminal sequences that are different fro ...

[1] = peptides derived from Manchego cheese; ref Ruiz et al.; cited from earlier work
Protocol: Simulated in vitro gastrointestinal digestion model was used to investigate the releasing of the amino acid sequences previously predicted in the in silico approach. The peptide was sequentially digested under physiological conditions and the identification of amino acid sequences in samples obtained from both gastric and intestinal digestion were performed by UHPLC-HRMS (Table 2). When the results obtained by the in silico approach and in vitro approach were compared, it was observed that only two of the fourteen predicted peptide fragments from the in silico approach were identified in the i ...

porcine pepsin = biological target: T1, porcine pepsin (Sus scrofa, UniProt P00791); assay: In vitro simulated gastric digestion (G60); assay type: in vitro ADME; conditions: simulated gastric fluid 35 mM NaCl pH 2, porcine pepsin enzyme/substrate 1:20 w/w, 37 °C, 60 min; UHPLC-HRMS extracted ion chromatogram, 20 ppm window, semi-quantified; triplicate aliquots
T1 construct: purchased Sigma-Aldrich (Madrid, Spain)
T1 sequence (P00791 60-385): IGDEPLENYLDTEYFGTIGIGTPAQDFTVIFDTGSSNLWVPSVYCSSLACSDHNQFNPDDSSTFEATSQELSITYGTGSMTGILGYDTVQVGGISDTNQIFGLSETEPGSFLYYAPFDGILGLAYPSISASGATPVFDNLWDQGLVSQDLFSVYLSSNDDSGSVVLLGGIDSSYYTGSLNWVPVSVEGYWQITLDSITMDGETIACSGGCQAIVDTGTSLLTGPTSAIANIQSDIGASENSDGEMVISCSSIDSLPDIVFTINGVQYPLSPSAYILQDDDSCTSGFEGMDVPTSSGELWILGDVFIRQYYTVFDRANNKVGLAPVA
Protocol: For the in vitro simulated peptide GI digestion, a two-stage hydrolysis process was carried out according to Martos et al.. […] was dissolved in simulated gastric fluid (35 mM NaCl at pH 2 for 15 min) and posteriorly subjected to digestion by porcine pepsin (E.C. 3.4.23.1, 3440 units/mg) at an enzyme/substrate ratio of 1: 20 w/w at 37 °C for 60 min. Gastric digestion with pepsin was stopped by adding 1 M NaHCO3 and pH was adjusted to 7.0 with NaOH 1 M (final protein concentration of 5 mg/mL). Aliquots of this gastric digest were collected (G60) and stored at −20 °C until analysis. Duodenal digestions were performed by using, as the starting material, the obtained gastric digests, with the addition of 1 M CaCl2, 0.25 M bis-Tris pH 6.5, 0.25 M bis-Tris pH 6.5, and a 0.125 M bile salts mixture containing equimolar quantities of sodium taurocholate and glycodeoxycholic acid. Posteriorly, the duodenal enzymes trypsin (EC 232-650-8, 10100 BAEE units/mg protein), α-chymotrypsin (EC 232-671-2; 55 units/mg protein), porcine pancreatic lipase (EC 232-619-9) and colipase (EC 259-490-1), prepared in 35 mM NaCl adjusted to pH 7, were added to the solution. Duodenal digestion was carried out at pH 7, 37 °C during 60 (D60). Then, enzymes were inactivated by heating at 95 °C for 10 min in a water bath, followed by cooling to room temperature. Triplicates of aliquots at each time point were collected and stored at −20 °C until analysis.
(§1) Samples obtained from in vitro peptide simulated digestion and Caco-2 monolayers were diluted 10 times with water (0.1% FA) and centrifuged (15,000 rpm, 15 min, 4 °C). Supernatants were directly analyzed by UHPLC-HRMS to avoid the loss of polar peptide fragments. Extensive clean-up or pre-concentration procedures were not necessary due to the high concentration of peptide and low matrix complexity than plasma samples.
(§2) The obtained purified solutions from plasma and peptide digests G60 and D60 and from AP and BL chambers in Caco-2 experiment were analyzed using a UHPLC 1290 Infinity II Series coupled to a QqQ 6490 Series (Agilent Technologies, Santa Clara, CA, USA) for tandem mass experiments or a qTOF 6550 Series (Agilent Technologies) for high-resolution mass spectrometry experiments. Chromatographic separation of peptide or their fragments were performed using a Kinetex 2.6 µm EVO C18 column (150 × 2.1 mm, […]) from (Phenomenex, Torrance, USA) as stationary phase and water containing 0.1% formic acid (solvent A) and acetonitrile (solvent B) as mobile phase. The separation was performed in gradient elution as follows: isocratic; 0–0.5 min, 2 % B; 0.5–1 min, 2–6% B; 1–5 min, 6–15% B; 5–6 min, 15–35% B; 6–10 min, 35–98% B; 10–12 min, 98% B isocratic; 12–12.10, 98–2% B. For all runs, 10 μL of the sample (4 °C) was injected, and the flow rate was 0.350 mL/min and the column temperature was 25 °C.
(§3) For in vitro simulated digestion experiments and Caco-2 monolayer samples, qTOF instrument was used to investigate the presence of unknown peptide fragments and previously in silico predicted peptide fragments by means of its accurate mass. Peptide and its fragments were semi-quantified using the chromatographic peak area observed in the extracted ion chromatograms using a 20 ppm mass window.

Caco-2 cell monolayers = assay: Transepithelial transport through Caco-2 monolayer; assay type: in vitro ADME; conditions: 21 days, TEER > 200 Ω/cm^2, gastric digest G60 added to apical chamber, AP to BL, 1 h, 37 °C, HBSS, content in basolateral chamber in comparison to apical chamber, UHPLC-HRMS, triplicates
Protocol: Caco-2 cells were obtained from Sigma-Aldrich and were grown Dulbecco’s modified minimum essential medium (DMEM), supplemented with 20% fetal bovine serum (FBS), […] L-glutamine, 100 U/mL penicillin and 100 μg/mL streptomycin at 37 °C in and 5% CO2. Cells were seeded onto Transwell inserts permeable membrane support (0.4 µm pore, 24 mm diameter, 4.7 cm^2 grown surface from Merck Co., Bedford, MA, USA) placed in six-well plates. The seeding density was 12,000 cell/cm^2. The medium was replaced every 2–3 days and cells were growing for 21 days. On the 21st day of the procedure, the integrity of the Caco-2 monolayer was assessed by the measurement of transepithelial electrical resistance (TEER) using a Millicell ERS-2 voltammeter (EMD Millipore, Darmstadt, Germany) selecting the ones with TEER values higher than 200 Ω/cm^2.
For the transport study, Caco-2 cells, maintained in DMEM, were gently rinsed with Hank’s balanced salt solution (HBSS) and equilibrated for 20 min at 37 °C prior to the transport study. Then, it was evaluated the transepithelial transport of the peptide […] (1 mM) dissolved in HBSS and the digests obtained in the in vitro simulated digestion (G60 and D60). […] or the peptide digests G60 and D60 were added to the apical (AP) chamber and were incubated for 1 h at 37 °C. After this time, triplicates of the AP chamber content and the basolateral (BL) chamber content were taken and stored at −80 °C until ultra-high performance liquid chromatography-high resolution mass spectrometry (UHPLC-HRMS) analyses.
as §1, §2, §3

Caco-2 monolayer = conditions: cited from earlier work
Protocol: To verify the lack of absorption of the peptide or their resultant fragments in the GI tract an additional study using Caco-2 cells was carried out. The native peptide […] and the samples collected after the simulated gastric and duodenal digestions (G60 and D60, respectively) were incubated in Caco-2 monolayer for 1 h. The peptide and its resultant fragments were identified in the AP chamber from G60 samples, however, only 0.10–0.25% were transported to the BL chamber (Table 3). Therefore, the presence of native […] in the AP chamber after 1 h of incubation and the absence of the ...

[2] = test system: spontaneously hypertensive rats; assay: Systolic blood pressure in SHR with or without Naloxone (tail-cuff); assay type: in vivo, rat; conditions: 50 mg/kg bw oral, Naloxone 3 mg/kg bw or saline, 6 h post-administration, n = 6
Protocol: Male, 17–20-week-old, SHR, weighing 286 ± 4 g were used in this study. All these animals were obtained from Charles River Laboratories Spain. The SHR were housed at a temperature of 23 °C with 12 h light/dark cycles and had free access to tap water and a standard diet (A04 Panlab). Before the experiments, rats were submitted to a training period of 10 days to guarantee the reliability of the measurements. To evaluate if […] presented an opioid-mediated effect, SHR received via subcutaneous 100 µL of Naloxone (3 mg/kg bw), and afterward a single oral dose (1 mL) of […] (10 mg/kg bw). Additionally, water, Captopril (50 mg/kg bw), known antihypertensive drug, and chicken foot hydrolysate Hpp11 (55 mg/kg bw), were administered as controls. Captopril and Hpp11 can inhibit ACE in vivo. […] Systolic blood pressure (SBP) was recorded in the rats by the tail-cuff method before and 2, 4, and 6 h post-administration. […]
Results from transepithelial transport studies are presented as means ± standard error means (SEM). […] The results for the experiments investigating the participation of opioid receptors in the […], Captopril and Hpp11 antihypertensive effect were expressed as the mean ± SEM of six animals per group (heterogeneity was tested by Levene’s test) and were analyzed by one-way ANOVA (Tukey’s test) using IBM SPSS Statistics 20.0 software. […]

Compound	Area G60 (chromatographic peak area) (porcine pepsin)	G60 % Transport (Caco-2 cell monolayers) [%]	further results
YGLF [α-lactorphin, milk-derived opioid-like antihypertensive peptide]	–	–	BP-lowering effect after administration of Naloxone (opioid receptors): abolished
VRYL [peptide derived from Manchego cheese]	–	–	Resistance to GI digestion [1]: resistance to GI digestion
CC(C)[C@H](NC(=O)[C@H](C)N)C(=O)N[C@@H](Cc1ccccc1)C(=O)N[C@@H](CCC(N)=O)C(=O)N[C@@H](Cc1c[nH]cn1)C(=O)N[C@@H](CC(N)=O)C(=O)N[C@@H](CSSC[C@H](NC(=O)[C@H](CC(N)=O)NC(=O)[C@H](Cc1c[nH]cn1)NC(=O)[C@H](CCC(N)=O)NC(=O)[C@H](Cc1ccccc1)NC(=O)[C@@H](NC(=O)[C@H](C)N)C(C)C)C(=O)N[C@@H](CCC(N)=O)C(=O)N[C@@H](CCC(=O)O)C(=O)O)C(=O)N[C@@H](CCC(N)=O)C(=O)N[C@@H](CCC(=O)O)C(=O)O (I: H-AVFQHNCQE-OH / II: H-AVFQHNCQE-OH; disulfide I:7-II:7)	605,812	0.11	–
RADHP [antihypertensive peptide reported by Miguel et al]	–	–	Transport through Caco-2 monolayer (Caco-2 monolayer): lack of transported through Caco-2 monolayer
AVFQH [AVFQH]	155,533	0.17	–
CC(C)[C@H](NC(=O)[C@H](C)N)C(=O)N[C@@H](Cc1ccccc1)C(=O)O [AVF] (H-Ala-Val-Phe-OH)	200,712	0.15	–
KKYNVPQL [peptide derived from Manchego cheese]	–	–	Resistance to GI digestion [1]: resistance to GI digestion
CC(C)[C@H](NC(=O)[C@H](C)N)C(=O)N[C@@H](Cc1ccccc1)C(=O)N[C@@H](CCC(N)=O)C(=O)N[C@@H](Cc1c[nH]cn1)C(=O)N[C@@H](CC(N)=O)C(=O)N[C@@H](CSSC[C@H](N)C(=O)N[C@@H](CCC(N)=O)C(=O)N[C@@H](CCC(=O)O)C(=O)O)C(=O)N[C@@H](CCC(N)=O)C(=O)N[C@@H](CCC(=O)O)C(=O)O (H-AVFQHNC(X1)QE-OH)	93,694	0.15	–
AVFQHN [AVFQHN]	685,482	0.10	–
QHNCQE [QHNCQE]	288,536	–	–
CC(C)[C@H](NC(=O)[C@H](C)N)C(=O)N[C@@H](Cc1ccccc1)C(=O)N[C@@H](CCC(N)=O)C(=O)N[C@@H](Cc1c[nH]cn1)C(=O)N[C@@H](CC(N)=O)C(=O)N[C@@H](CSSC[C@H](NC(=O)[C@H](CC(N)=O)NC(=O)[C@H](Cc1c[nH]cn1)NC(=O)[C@@H](N)CCC(N)=O)C(=O)N[C@@H](CCC(N)=O)C(=O)N[C@@H](CCC(=O)O)C(=O)O)C(=O)N[C@@H](CCC(N)=O)C(=O)N[C@@H](CCC(=O)O)C(=O)O (I: H-AVFQHNCQE-OH / II: H-QHNCQE-OH; disulfide I:7-II:4)	136,056	0.15	–
AVFQHNC [AVFQHNC]	220,051	0.60	–
C[C@H](CS)C(=O)N1CCC[C@H]1C(=O)O [Captopril]	–	–	BP reduction in naloxone-treated and saline-treated rats [2]: able to reduce BP in rats treated with Naloxone and in rats treated with saline
